# Assay results: patent US20260262643A1, “HERBICIDAL BENZOXAZINES” (FMC CORPORATION, priority 2022, published 2026)
# Experiments:
# [1] = test system: ryegrass, Italian; test: Test C postemergence; format: in vivo, Lolium multiflorum; settings: 10 days
# How it was run: (§1)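 Visual injury ratings on a 0–100 scale (100 = complete control) were made against untreated controls 10 days after treatment in the greenhouse. Compounds, formulated with surfactant in non-phytotoxic solvent, were sprayed on soil preemergence or onto one- to two-leaf plants 2–10 cm tall postemergence.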
# [2] = test system: corn; test: Test C preemergence; format: in vivo, Zea mays; settings: for Plant response rating, Corn: Preemergence; for Corn plant response rating: preemergence
# How it was run: as §1
# [3] = test system: green foxtail; test: Test C preemergence; format: in vivo, Setaria viridis; settings: for Plant response rating, Foxtail, Green: Preemergence; for Foxtail, Green plant response rating: preemergence
# How it was run: as §1
# [4] = test system: kochia; test: Test C postemergence; format: in vivo, Bassia scoparia; settings: 10 days
# How it was run: as §1
# [5] = test system: barnyardgrass; test: Test D flooded paddy test; format: in vivo, Echinochloa crus-galli; settings: 250 g ai/ha, applied to paddy water, visual rating after 13 to 14 days, scale 0 to 100 (0 no effect, 100 complete control)
# How it was run: (§2)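 2-leaf plants; flood 3 cm above soil; compound dosed into paddy water; greenhouse 13–14 d; visual rating vs controls, 0–100 (100 = complete control); dash = not tested.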
# [6] = test system: soybean; test: Test C preemergence; format: in vivo, Glycine max; settings: for Plant response rating, Soybean: Preemergence; for Soybean plant response rating: preemergence
# How it was run: as §1
# [7] = test system: kochia; test: Test C preemergence; format: in vivo, Bassia scoparia; settings: for Plant response rating, Kochia: Preemergence; for Kochia plant response rating: preemergence
# How it was run: as §1
# [8] = test system: ragweed; test: Test C preemergence; format: in vivo, Ambrosia artemisiifolia; settings: for Plant response rating, Ragweed: Preemergence; for Ragweed plant response rating: preemergence
# How it was run: as §1
# [9] = test system: oat, wild; test: Test C postemergence; format: in vivo, Avena fatua; settings: 10 days
# How it was run: as §1
# [10] = test system: green foxtail; test: Test C postemergence; format: in vivo, Setaria viridis; settings: 10 days
# How it was run: as §1
# [11] = test system: wheat; test: Test C postemergence; format: in vivo, Triticum aestivum; settings: 10 days
# How it was run: as §1
# [12] = test system: oat, wild; test: Test C preemergence; format: in vivo, Avena fatua; settings: for Plant response rating, Oat, Wild: Preemergence; for Oat, Wild plant response rating: preemergence
# How it was run: as §1
# [13] = test system: barnyardgrass; test: Test C postemergence; format: in vivo, Echinochloa crusgalli; settings: 10 days
# How it was run: as §1
# [14] = test system: corn; test: Test C postemergence; format: in vivo, Zea mays; settings: 10 days
# How it was run: as §1
# [15] = test system: blackgrass; test: Test C postemergence; format: in vivo, Alopecurus myosuroides; settings: 10 days
# How it was run: as §1
# [16] = test system: ragweed; test: Test C postemergence; format: in vivo, Ambrosia artemisiifolia; settings: 10 days
# How it was run: as §1
# [17] = test system: rice; test: Test D flooded paddy test; format: in vivo, Oryza sativa; settings: 250 g ai/ha, applied to paddy water, visual rating after 13 to 14 days, scale 0 to 100 (0 no effect, 100 complete control)
# How it was run: as §2
# [18] = test system: wheat; test: Test C preemergence; format: in vivo, Triticum aestivum; settings: for Plant response rating, Wheat: Preemergence; for Wheat plant response rating: preemergence
# How it was run: as §1
# [19] = test system: galium; test: Test C postemergence; format: in vivo, Galium aparine; settings: 10 days
# How it was run: as §1
# [20] = test system: blackgrass; test: Test C preemergence; format: in vivo, Alopecurus myosuroides; settings: for Plant response rating, Blackgrass: Preemergence; for Blackgrass plant response rating: preemergence
# How it was run: as §1
# [21] = test system: horseweed; test: Test C postemergence; format: in vivo, Erigeron canadensis; settings: 10 days
# How it was run: as §1
# [22] = test system: soybean; test: Test C postemergence; format: in vivo, Glycine max; settings: 10 days
# How it was run: as §1
# [23] = test system: pigweed, palmer; test: Test C postemergence; format: in vivo, Amaranthus palmeri; settings: 10 days
# How it was run: as §1
# [24] = test system: pigweed, palmer; test: Test C preemergence; format: in vivo, Amaranthus palmeri; settings: for Plant response rating, Pigweed, Palmer: Preemergence; for Pigweed, Palmer plant response rating: preemergence
# How it was run: as §1
# [25] = test system: barnyardgrass; test: Test C preemergence; format: in vivo, Echinochloa crusgalli; settings: for Barnyardgrass plant response rating: preemergence; for Plant response rating, Barnyardgrass: Preemergence
# How it was run: as §1
# [26] = test system: ryegrass, Italian; test: Test C preemergence; format: in vivo, Lolium multiflorum; settings: for Plant response rating, Ryegrass, Italian: Preemergence; for Ryegrass, Italian plant response rating: preemergence
# How it was run: as §1
# [27] = test system: sedge, umbrella; test: Test D flooded paddy test; format: in vivo, Cyperus difformis; settings: 250 g ai/ha, applied to paddy water, visual rating after 13 to 14 days, scale 0 to 100 (0 no effect, 100 complete control)
# How it was run: as §2
# [28] = test system: ducksalad; test: Test D flooded paddy test; format: in vivo, Heteranthera limosa; settings: 250 g ai/ha, applied to paddy water, visual rating after 13 to 14 days, scale 0 to 100 (0 no effect, 100 complete control)
# How it was run: as §2
# [29] = 125 g ai/ha, postemergence, 0 to 100 scale, 0 no effect, 100 complete control
# [30] = Postemergence, 500 g ai/ha, visual 0 to 100 scale (0 no effect, 100 complete control)
# [31] = 500 g ai/ha, visual rating after 10 days, 0 to 100 scale (0 no effect, 100 complete control)
# [32] = Test C, 125 g ai/ha, 0 to 100 scale (0 no effect, 100 complete control)
# [33] = Postemergence, 125 g ai/ha, 0 to 100 scale (0 no effect, 100 complete control)
# [34] = 500 g ai/ha, 0 to 100 scale (0 no effect, 100 complete control)
# [35] = 125 g ai/ha, 0 to 100 scale, 0 no effect, 100 complete control
# [36] = 500 g ai/ha, postemergence, 0 to 100 scale (0 no effect, 100 complete control)
smiles,measurement,setting,value
CC(C)c1ncn(-c2cc3c(c(C(=O)N4C[C@H](C)Oc5c(Cl)cccc54)c2)OCCCO3)n1 [Compound 158],"Plant response rating, Ryegrass, Italian",[1]; [29],40
same,"Plant response rating, Ryegrass, Italian",[1]; [30],70
same,"Plant response rating, Corn",[2]; [31],20
same,Corn plant response rating,[2]; [32],0
same,"Plant response rating, Foxtail, Green",[3]; [31],100
same,"Foxtail, Green plant response rating",[3]; [32],100
same,"Plant response rating, Kochia",[4]; [29],70
same,"Plant response rating, Kochia",[4]; [30],90
same,"Plant response rating, Barnyardgrass (Flood)",[5],25
same,"Plant response rating, Soybean",[6]; [31],80
same,Soybean plant response rating,[6]; [32],50
same,"Plant response rating, Kochia",[7]; [31],90
same,Kochia plant response rating,[7]; [32],70
same,"Plant response rating, Ragweed",[8]; [31],90
same,Ragweed plant response rating,[8]; [32],80
same,"Plant response rating, Oat, Wild",[9]; [29],30
same,"Plant response rating, Oat, Wild",[9]; [30],60
same,"Plant response rating, Foxtail, Green",[10]; [29],60
same,"Plant response rating, Foxtail, Green",[10]; [30],90
same,"Plant response rating, Wheat",[11]; [29],30
same,"Plant response rating, Wheat",[11]; [30],70
same,"Plant response rating, Oat, Wild",[12]; [31],80
same,"Oat, Wild plant response rating",[12]; [32],20
same,"Plant response rating, Barnyardgrass",[13]; [29],40
same,"Plant response rating, Barnyardgrass",[13]; [30],70
same,"Plant response rating, Corn",[14]; [29],50
same,"Plant response rating, Corn",[14]; [30],60
same,"Plant response rating, Blackgrass",[15]; [29],40
same,"Plant response rating, Blackgrass",[15]; [30],90
same,"Plant response rating, Ragweed",[16]; [29],90
same,"Plant response rating, Ragweed",[16]; [30],80
same,"Plant response rating, Rice (Flood)",[17],0
same,"Plant response rating, Wheat",[18]; [31],40
same,Wheat plant response rating,[18]; [32],10
same,"Plant response rating, Galium",[19]; [29],100
same,"Plant response rating, Galium",[19]; [30],90
same,"Plant response rating, Blackgrass",[20]; [31],60
same,Blackgrass plant response rating,[20]; [32],40
same,"Plant response rating, Horseweed",[21]; [29],20
same,"Plant response rating, Horseweed",[21]; [30],20
same,"Plant response rating, Soybean",[22]; [29],100
same,"Plant response rating, Soybean",[22]; [30],100
same,"Plant response rating, Pigweed, Palmer",[23]; [29],80
same,"Plant response rating, Pigweed, Palmer",[23]; [30],100
same,"Plant response rating, Pigweed, Palmer",[24]; [31],100
same,"Pigweed, Palmer plant response rating",[24]; [32],100
same,Barnyardgrass plant response rating,"[25]; 125 g ai/ha, 0 to 100 scale (0 no effect, 100 complete control)",60
same,"Plant response rating, Barnyardgrass",[25]; [31],90
same,"Plant response rating, Ryegrass, Italian",[26]; [31],80
same,"Ryegrass, Italian plant response rating",[26]; [32],80
same,"Plant response rating, Sedge, Umbrella (Flood)",[27],75
same,"Plant response rating, Ducksalad (Flood)",[28],65
CCOC[C@H]1CN(C(=O)c2cc(-n3cnc(C(C)(C)C)n3)ccc2C)c2cccc(Cl)c2O1 [Compound 413],"Plant response rating, Ryegrass, Italian",[1]; [33],40
same,Corn plant response rating,[2]; [34],10
same,"Plant response rating, Corn",[2]; [35],0
same,"Foxtail, Green plant response rating",[3]; [34],100
same,"Plant response rating, Foxtail, Green",[3]; [35],80
same,"Plant response rating, Kochia",[4]; [36],90
same,"Plant response rating, Kochia",[4]; [33],90
same,"Plant response rating, Barnyardgrass (Flood)",[5],35
same,Soybean plant response rating,[6]; [34],100
same,"Plant response rating, Soybean",[6]; [35],70
same,Kochia plant response rating,[7]; [34],80
same,"Plant response rating, Kochia",[7]; [35],10
same,Ragweed plant response rating,[8]; [34],70
same,"Plant response rating, Ragweed",[8]; [35],60
same,"Plant response rating, Oat, Wild",[9]; [36],10
same,"Plant response rating, Oat, Wild",[9]; [33],0
same,"Plant response rating, Foxtail, Green",[10]; [36],60
same,"Plant response rating, Foxtail, Green",[10]; [33],10
same,"Plant response rating, Wheat",[11]; [33],10
same,"Oat, Wild plant response rating",[12]; [34],0
same,"Plant response rating, Oat, Wild",[12]; [35],0
same,"Plant response rating, Barnyardgrass",[13]; [36],40
same,"Plant response rating, Barnyardgrass",[13]; [33],20
same,"Plant response rating, Corn",[14]; [36],20
same,"Plant response rating, Corn",[14]; [33],10
same,"Plant response rating, Blackgrass",[15]; [36],20
same,"Plant response rating, Blackgrass",[15]; [33],20
same,"Plant response rating, Ragweed",[16]; [33],70
same,"Plant response rating, Rice (Flood)",[17],10
same,Wheat plant response rating,[18]; [34],0
same,"Plant response rating, Wheat",[18]; [35],0
same,"Plant response rating, Galium",[19]; [36],100
same,"Plant response rating, Galium",[19]; [33],90
same,Blackgrass plant response rating,[20]; [34],60
same,"Plant response rating, Blackgrass",[20]; [35],30
same,"Plant response rating, Horseweed",[21]; [36],60
same,"Plant response rating, Horseweed",[21]; [33],10
same,"Plant response rating, Soybean",[22]; [33],100
same,"Plant response rating, Pigweed, Palmer",[23]; [36],100
same,"Plant response rating, Pigweed, Palmer",[23]; [33],100
same,"Pigweed, Palmer plant response rating",[24]; [34],100
same,"Plant response rating, Pigweed, Palmer",[24]; [35],90
same,Barnyardgrass plant response rating,[25]; [34],90
same,"Plant response rating, Barnyardgrass",[25]; [35],50
same,"Ryegrass, Italian plant response rating",[26]; [34],100
same,"Plant response rating, Ryegrass, Italian",[26]; [35],80
same,"Plant response rating, Sedge, Umbrella (Flood)",[27],45
same,"Plant response rating, Ducksalad (Flood)",[28],15
